Measured values published in ChEMBL document CHEMBL1130222, “Induction of the estrogen specific mitogenic response of MCF-7 cells by selected analogues of estradiol-17 beta: a 3D QSAR study” (J Med Chem, 1997).

Tests used:
MCF7 = test: cells; conditions: Homo sapiens
Description: Growth response in cultures of MCF-7 (human breast cancer cell line) cells

[1] = target: Estrogen receptor (Homo sapiens) (UniProt Q92731+P03372)
Description: Estrogen receptor (ER) binding affinity

SMILES | EC50 (MCF7) [nM] | Ka [1] [M⁻¹]
C[C@]12CC[C@@H]3c4ccc(I)cc4CCC3[C@@H]1CC[C@@H]2O (single isomer, unassigned) | 0.174 | 1.96e+07
C[C@]12CC[C@@H](O)C[C@@H]1CCC1[C@@H]2CC[C@]2(C)[C@@H](O)CC[C@@H]12 (single isomer, unassigned) [ANDROSTANDIOL] | > 10000 | < 1.85e+06
C[C@@]12CCC[C@H]1C1CCc3cc(O)ccc3[C@H]1CC2 (single isomer, unassigned) | 0.118 | 2.93e+09
C[C@]12CC[C@@H]3c4ccc(O)cc4CC(=O)C3[C@@H]1CC[C@@H]2O (single isomer, unassigned) | 0.016 | 3.39e+09
C[C@]12CC[C@H](O)C[C@@H]1CCC1[C@@H]2CC[C@]2(C)[C@@H](O)CC[C@@H]12 (single isomer, unassigned) [ANDROSTANEDIOL] | 4.66 | 1.8e+07
C[C@]12CC[C@@H]3c4cccc(I)c4CCC3[C@@H]1CC[C@@H]2O (single isomer, unassigned) | 1.67 | 4.44e+06
C[C@]12CC[C@H]3C(=CCc4cc(O)ccc43)[C@@H]1CC[C@@H]2O | 0.00154 | –
C[C@]12CC[C@@H]3c4c(N)cccc4CCC3[C@@H]1CC[C@@H]2O (single isomer, unassigned) | 28.4 | < 1.85e+06
C[C@]12CC[C@@H]3c4ccc(O)cc4CCC3[C@@H]1C[C@@H](O)C2 (single isomer, unassigned) | 0.237 | 2.97e+09
C[C@]12CC[C@@H]3c4cccc([N+](=O)[O-])c4CCC3[C@@H]1CC[C@@H]2O (single isomer, unassigned) | 34.2 | < 1.85e+06
C[C@]12CC[C@@H]3c4ccc(O)cc4C[C@@H](O)C3[C@@H]1CC[C@@H]2O (single isomer, unassigned) | 0.153 | 6.3e+07
C[C@]12CC[C@@H]3c4ccc(O)c([N+](=O)[O-])c4CCC3[C@@H]1CC[C@@H]2O (single isomer, unassigned) | 0.9 | 1.44e+08
C[C@@]12CCC[C@H]1C1CCc3ccccc3[C@H]1CC2 (single isomer, unassigned) | 201 | < 1.8e+06
C[C@]12CC[C@@H]3c4ccc(N)cc4CCC3[C@@H]1CC[C@@H]2O (single isomer, unassigned) | 1.5 | 2.78e+11
C[C@]12CC[C@@H]3c4cccc(O)c4CCC3[C@@H]1CC[C@@H]2O (single isomer, unassigned) | 4.76 | 2.5e+08
C[C@]12CCc3c(ccc4cc(O)ccc34)[C@@H]1CC[C@@H]2O | 0.0125 | 1.52e+09
C[C@]12C[C@H](O)[C@@H]3c4ccc(O)cc4CCC3[C@@H]1CC[C@@H]2O (single isomer, unassigned) | 0.0163 | 6.22e+07
C[C@]12CC[C@@H]3c4ccc([N+](=O)[O-])cc4CCC3[C@@H]1CC[C@@H]2O (single isomer, unassigned) | 2.16 | 7.77e+06
C[C@]12CC[C@@H]3c4cc(I)ccc4CCC3[C@@H]1CC[C@@H]2O (single isomer, unassigned) | 1.7 | 3.33e+06

SMILES | EC50 (MCF7) [nM] | Ka [1] [M⁻¹]
C[C@]12CC[C@@H]3c4ccc(O)cc4[C@H](O)CC3[C@@H]1CC[C@@H]2O (single isomer, unassigned) | 0.0571 | 7e+07
C[C@]12CC[C@@H]3c4c(cccc4[N+](=O)[O-])CCC3[C@@H]1CC[C@@H]2O (single isomer, unassigned) | 60.4 | < 1.85e+06
C[C@]12CC[C@@H]3c4ccc(O)c(N)c4CCC3[C@@H]1CC[C@@H]2O (single isomer, unassigned) | 0.346 | 2.11e+08
C[C@]12CC[C@@H]3c4ccc(O)cc4CCC3[C@@H]1C[C@@H](O)[C@@H]2O (single isomer, unassigned) [ESTRIOL] | 0.0483 | –
C[C@]12CC[C@@H]3c4ccc(O)cc4C(=O)CC3[C@@H]1CC[C@@H]2O (single isomer, unassigned) | 0.00338 | 1.09e+09
C[C@]12CC[C@@H]3c4ccc(O)cc4[C@@H](O)CC3[C@@H]1CC[C@@H]2O (single isomer, unassigned) | 0.186 | 8.88e+07
C[C@]12CC[C@@H]3c4cc(O)ccc4CCC3[C@@H]1CC[C@@H]2O (single isomer, unassigned) | 0.033 | 2.6e+09
C[C@]12CC[C@@H]3c4c(O)cccc4CCC3[C@@H]1CC[C@@H]2O (single isomer, unassigned) | 1.59 | 1.8e+07
C[C@]12CC[C@@H]3c4cc(N)c(O)cc4CCC3[C@@H]1CC[C@@H]2O (single isomer, unassigned) | 0.558 | 1.33e+08
C[C@]12CC[C@@H]3c4ccc(O)cc4C=C[C@@H]3[C@@H]1CC[C@@H]2O | 0.00419 | –
C[C@]12C[C@@H](O)[C@@H]3c4ccc(O)cc4CCC3[C@@H]1CC[C@@H]2O (single isomer, unassigned) | 0.0365 | 1.15e+07
C[C@]12CC[C@@H]3c4cc([N+](=O)[O-])c(O)cc4CCC3[C@@H]1CC[C@@H]2O (single isomer, unassigned) | 33.5 | 3.7e+06
C[C@]12CC[C@@H]3c4cc([N+](=O)[O-])ccc4CCC3[C@@H]1CC[C@@H]2O (single isomer, unassigned) | 29.3 | < 1.85e+06
C[C@]12CC[C@@H]3c4cc(N)ccc4CCC3[C@@H]1CC[C@@H]2O (single isomer, unassigned) | 0.127 | 1.45e+08
C[C@]12CC[C@H]3[C@H](CC=C4C[C@@H](O)CC[C@@]43C)[C@@H]1CC[C@@H]2O | 1.41 | 2.7e+07
C[C@]12CC(=O)[C@@H]3c4ccc(O)cc4CCC3[C@@H]1CC[C@@H]2O (single isomer, unassigned) | 8.97 | 3.33e+06
C[C@]12CC[C@@H]3c4ccc(O)cc4C[C@H](O)C3[C@@H]1CC[C@@H]2O (single isomer, unassigned) | 0.0122 | 3.66e+09
C[C@]12CC[C@@H]3c4cccc(N)c4CCC3[C@@H]1CC[C@@H]2O (single isomer, unassigned) | 2 | 2.15e+07
C[C@]12CC[C@@H]3c4ccccc4CCC3[C@@H]1CC[C@@H]2O (single isomer, unassigned) | 0.316 | 4.1e+08
